Measurements from US10023570B2 (Array BioPharma, Inc., priority 2015, dated 2018).
Values joined by “and” are separate entries in the source; they are usually repeats but may differ in a detail not shown here. Equal values may be shown once. Where a name gives a salt, the structure may show the parent alone.

Target: human KDR protein in HEK-293 cells (Homo sapiens (Human), UniProt P35968)
Assay: KDR Cell Assay (phospho-KDR in HEK-293 cells expressing inducible KDR)
Format: cell-based
Conditions: pKDR Cell HEK 10% FBS IC50, HEK-293 cells expressing inducible KDR, VEGF stimulated
In short: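 HEK-293 cells with inducible human KDR were treated with compound for 1 h in DMEM (0.25% DMSO final), then lysed. Phospho-KDR was quantified by Meso Scale immunoassay, expressed as percent of control, and IC50 taken where a 4-parameter logistic fit crossed 50 POC.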

Chain of human KDR protein in HEK-293 cells (P35968 20-1356): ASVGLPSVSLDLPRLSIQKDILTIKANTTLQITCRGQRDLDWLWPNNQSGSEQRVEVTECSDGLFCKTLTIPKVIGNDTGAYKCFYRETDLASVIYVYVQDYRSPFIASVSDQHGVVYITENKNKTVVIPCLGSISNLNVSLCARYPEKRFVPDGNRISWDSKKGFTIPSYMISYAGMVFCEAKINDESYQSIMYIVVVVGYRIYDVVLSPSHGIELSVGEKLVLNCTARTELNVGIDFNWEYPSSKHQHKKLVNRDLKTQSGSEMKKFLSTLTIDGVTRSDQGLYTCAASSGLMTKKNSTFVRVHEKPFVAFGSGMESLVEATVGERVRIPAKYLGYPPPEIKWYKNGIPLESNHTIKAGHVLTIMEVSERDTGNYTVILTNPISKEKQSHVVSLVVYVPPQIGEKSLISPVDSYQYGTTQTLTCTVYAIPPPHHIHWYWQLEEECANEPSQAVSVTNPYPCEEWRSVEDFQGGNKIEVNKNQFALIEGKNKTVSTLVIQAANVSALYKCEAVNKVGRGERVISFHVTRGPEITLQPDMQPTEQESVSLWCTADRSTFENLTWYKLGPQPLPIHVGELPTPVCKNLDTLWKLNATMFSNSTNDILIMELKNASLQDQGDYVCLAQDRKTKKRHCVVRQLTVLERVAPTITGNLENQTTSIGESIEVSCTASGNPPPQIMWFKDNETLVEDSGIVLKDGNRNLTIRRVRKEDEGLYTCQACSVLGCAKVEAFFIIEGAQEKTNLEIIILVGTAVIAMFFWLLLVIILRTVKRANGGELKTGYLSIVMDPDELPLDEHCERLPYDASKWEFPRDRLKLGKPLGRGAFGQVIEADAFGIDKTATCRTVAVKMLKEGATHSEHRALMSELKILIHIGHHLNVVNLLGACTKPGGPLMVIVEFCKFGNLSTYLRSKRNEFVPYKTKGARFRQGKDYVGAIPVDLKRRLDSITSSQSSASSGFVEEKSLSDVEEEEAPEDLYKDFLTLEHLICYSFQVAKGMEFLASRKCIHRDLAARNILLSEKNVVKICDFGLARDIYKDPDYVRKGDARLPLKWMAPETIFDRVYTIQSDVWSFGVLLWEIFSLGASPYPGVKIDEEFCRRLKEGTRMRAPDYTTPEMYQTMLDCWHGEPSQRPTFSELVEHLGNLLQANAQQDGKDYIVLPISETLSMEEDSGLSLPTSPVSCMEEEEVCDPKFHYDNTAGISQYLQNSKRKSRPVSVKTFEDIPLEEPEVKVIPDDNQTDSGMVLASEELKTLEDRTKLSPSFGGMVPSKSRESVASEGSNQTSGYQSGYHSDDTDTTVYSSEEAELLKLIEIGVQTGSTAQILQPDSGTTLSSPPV

Compound | IC50
Cn1cc(-c2cc(-c3ccc(N4CCC5(CC4)CCN5C(=O)OC(C)(C)C)nc3)c3c(C#N)cnn3c2)cn1 [Example 515, tert-butyl 7-(5-(3-cyano-6-(1-methyl-1H-pyrazol-4-yl)pyrazolo[1,5-a]pyridin-4-yl)pyridin-2-yl)-1,7-diazaspiro[3.5]nonane-1-carboxylate] | 284 nM
Cn1cc(-c2cc(-c3ccc(N4CCC5(CN(C(=O)OC(C)(C)C)C5)C4)nc3)c3c(C#N)cnn3c2)cn1 [Example 521, tert-butyl 6-(5-(3-cyano-6-(1-methyl-1H-pyrazol-4-yl)pyrazolo[1,5-a]pyridin-4-yl)pyridin-2-yl)-2,6-diazaspiro[3.4]octane-2-carboxylate] | 675 nM
Cn1cc(-c2cc(-c3ccc(N4CC5(CCCN5C(=O)OCc5ccccc5)C4)nc3)c3c(C#N)cnn3c2)cn1 [Example 525, benzyl 2-(5-(3-cyano-6-(1-methyl-1H-pyrazol-4-yl)pyrazolo[1,5-a]pyridin-4-yl)pyridin-2-yl)-2,5-diazaspiro[3.4]octane-5-carboxylate 2,2,2-trifluoroacetate] | 1580 nM
Cn1cc(-c2cc(-c3ccc(N4CC5(CCOCC5)C4)nc3)c3c(C#N)cnn3c2)cn1 [Example 527, 4-(6-(7-oxa-2-azaspiro[3.5]nonan-2-yl)pyridin-3-yl)-6-(1-methyl-1H-pyrazol-4-yl)pyrazolo[1,5-a]pyridine-3-carbonitrile 2,2,2-trifluoroacetate] | 918 nM
Cn1cc(-c2cc(-c3ccc(N4CC5(CCOC5)C4)nc3)c3c(C#N)cnn3c2)cn1 [Example 528, 4-(6-(6-oxa-2-azaspiro[3.4]octan-2-yl)pyridin-3-yl)-6-(1-methyl-1H-pyrazol-4-yl)pyrazolo[1,5-a]pyridine-3-carbonitrile 2,2,2-trifluoroacetate] | 1670 nM
Cn1cc(-c2cc(-c3ccc(N4CCC5(CCOC5)C4)nc3)c3c(C#N)cnn3c2)cn1 (stereo not drawn) [Example 530, 4-(6-(2-oxa-7-azaspiro[4.4]nonan-7-yl)pyridin-3-yl)-6-(1-methyl-1H-pyrazol-4-yl)pyrazolo[1,5-a]pyridine-3-carbonitrile 2,2,2-trifluoroacetate] | 1540 nM
Cn1cc(-c2cc(-c3ccc(N4CCC(O)(C(F)(F)F)C4)nc3)c3c(C#N)cnn3c2)cn1 (stereo not drawn) [Example 531, 4-(6-(3-hydroxy-3-(trifluoromethyl)pyrrolidin-1-yl)pyridin-3-yl)-6-(1-methyl-1H-pyrazol-4-yl)pyrazolo[1,5-a]pyridine-3-carbonitrile 2,2,2-trifluoroacetate] | 690 nM
Cn1cc(-c2cc(-c3ccc(N4CCC(c5ccccc5)C4)nc3)c3c(C#N)cnn3c2)cn1 (stereo not drawn) [Example 533, 6-(1-methyl-1H-pyrazol-4-yl)-4-(6-(3-phenylpyrrolidin-1-yl)pyridin-3-yl)pyrazolo[1,5-a]pyridine-3-carbonitrile 2,2,2-trifluoroacetate] | 4860 nM
Cn1cc(-c2cc(-c3ccc(N4CCC(c5ccc(Cl)cc5)CC4)nc3)c3c(C#N)cnn3c2)cn1 [Example 534, 4-(6-(4-(4-chlorophenyl)piperidin-1-yl)pyridin-3-yl)-6-(1-methyl-1H-pyrazol-4-yl)pyrazolo[1,5-a]pyridine-3-carbonitrile 2,2,2-trifluoroacetate] | 12.5 nM
Cn1cc(-c2cc(-c3ccc(N4CCC5(CCNCC5)CC4)nc3)c3c(C#N)cnn3c2)cn1 [Example 539, 4-(6-(3,9-diazaspiro[5.5]undecan-3-yl)pyridin-3-yl)-6-(1-methyl-1H-pyrazol-4-yl)pyrazolo[1,5-a]pyridine-3-carbonitrile dihydrochloride] | 1640 nM
Cn1cc(-c2cc(-c3ccc(N4CCCC5(CCNCC5)C4)nc3)c3c(C#N)cnn3c2)cn1 [Example 540, 4-(6-(2,9-diazaspiro[5.5]undecan-2-yl)pyridin-3-yl)-6-(1-methyl-1H-pyrazol-4-yl)pyrazolo[1,5-a]pyridine-3-carbonitrile dihydrochloride] | 1220 nM
Cn1cc(-c2cc(-c3ccc(N4CCC5(CCCN5)CC4)nc3)c3c(C#N)cnn3c2)cn1 [Example 541, 4-(6-(1,8-diazaspiro[4.5]decan-8-yl)pyridin-3-yl)-6-(1-methyl-1H-pyrazol-4-yl)pyrazolo[1,5-a]pyridine-3-carbonitrile dihydrochloride] | 534 nM

Second part, the compound after the results:

IC50 | Compound
2940 nM | Cn1cc(-c2cc(-c3ccc(N4CCC5(CCCN5C(=O)OC(C)(C)C)CC4)nc3)c3c(C#N)cnn3c2)cn1 [Example 513, tert-butyl 8-(5-(3-cyano-6-(1-methyl-1H-pyrazol-4-yl)pyrazolo[1,5-a]pyridin-4-yl)pyridin-2-yl)-1,8-diazaspiro[4.5]decane-1-carboxylate]
173 nM | Cn1cc(-c2cc(-c3ccc(N4CCC5(CC4)CC(NC(=O)OC(C)(C)C)C5)nc3)c3c(C#N)cnn3c2)cn1 [Example 516, tert-butyl (7-(5-(3-cyano-6-(1-methyl-1H-pyrazol-4-yl)pyrazolo[1,5-a]pyridin-4-yl)pyridin-2-yl)-7-azaspiro[3.5]nonan-2-yl)carbamate]
1790 nM | Cn1cc(-c2cc(-c3ccc(N4CCC5(CCN(C(=O)OC(C)(C)C)CC5)C4)nc3)c3c(C#N)cnn3c2)cn1 [Example 517, tert-butyl 2-(5-(3-cyano-6-(1-methyl-1H-pyrazol-4-yl)pyrazolo[1,5-a]pyridin-4-yl)pyridin-2-yl)-2,8-diazaspiro[4.5]decane-8-carboxylate]
4630 nM | Cn1cc(-c2cc(-c3ccc(N4CCC5(CCCN(C(=O)OC(C)(C)C)C5)C4)nc3)c3c(C#N)cnn3c2)cn1 (stereo not drawn) [Example 518, tert-butyl 2-(5-(3-cyano-6-(1-methyl-1H-pyrazol-4-yl)pyrazolo[1,5-a]pyridin-4-yl)pyridin-2-yl)-2,7-diazaspiro[4.5]decane-7-carboxylate]
1250 nM | Cn1cc(-c2cc(-c3ccc(N4CCC5(CCN(C(=O)OC(C)(C)C)C5)C4)nc3)c3c(C#N)cnn3c2)cn1 (stereo not drawn) [Example 519, tert-butyl 7-(5-(3-cyano-6-(1-methyl-1H-pyrazol-4-yl)pyrazolo[1,5-a]pyridin-4-yl)pyridin-2-yl)-2,7-diazaspiro[4.4]nonane-2-carboxylate]
≥ 5000 nM | Cn1cc(-c2cc(-c3ccc(N4CC5(CN(C(=O)OC(C)(C)C)C5)C4)nc3)c3c(C#N)cnn3c2)cn1 [Example 526, tert-butyl 6-(5-(3-cyano-6-(1-methyl-1H-pyrazol-4-yl)pyrazolo[1,5-a]pyridin-4-yl)pyridin-2-yl)-2,6-diazaspiro[3.3]heptane-2-carboxylate]
≥ 5000 nM | Cn1cc(-c2cc(-c3ccc(N4CCC5(CCCOC5)C4)nc3)c3c(C#N)cnn3c2)cn1 (stereo not drawn) [Example 529, 4-(6-(7-oxa-2-azaspiro[4.5]decan-2-yl)pyridin-3-yl)-6-(1-methyl-1H-pyrazol-4-yl)pyrazolo[1,5-a]pyridine-3-carbonitrile]
374 nM | Cn1cc(-c2cc(-c3ccc(N4CCC(Cc5ccccc5)CC4)nc3)c3c(C#N)cnn3c2)cn1 [Example 535, 4-(6-(4-benzylpiperidin-l-yl)pyridin-3-yl)-6-(1-methyl-1H-pyrazol-4-yl)pyrazolo[1,5-a]pyridine-3-carbonitrile]
787 nM and 656 nM | Cn1cc(-c2cc(-c3ccc(N4CCC(Cc5ccc(Cl)cc5)CC4)nc3)c3c(C#N)cnn3c2)cn1 [Example 536, 4-(6-(4-(4-chlorobenzyl)piperidin-1-yl)pyridin-3-yl)-6-(1-methyl-1H-pyrazol-4-yl)pyrazolo[1,5-a]pyridine-3-carbonitrile]
